According to ChEMBL document CHEMBL5252542, “Discovery and Optimization of 5-Amino-1,2,3-triazole-4-carboxamide Series against Trypanosoma cruzi” (J Med Chem, 2017):

How the values were obtained:
[1] = buffer, pH 7.4
[2] = mouse, in vivo, po, 10 mg/kg, 24 h
[3] = mouse, in vivo, po, 10 mg/kg, 8 h
[4] = Drug metabolism in po dosed NMRI mouse plasma assessed as release of 3-methoxyaniline; assay type: ADME, organism-based; settings: in vivo
[5] = Drug metabolism in mouse plasma assessed as release of 3-methoxyaniline measured after 5 hrs; assay type: ADME, cell-free
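Wherever logD is given: logD at pH 7.4 derived from a chromatographic hydrophobicity index measured by reversed-phase HPLC.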

**Q.** Which logD [1] does the source give for `COC1CCCC(NC(=O)c2nnn(Cc3ccc(CN4CCOCC4)cc3)c2N)C1` (stereo not given) here?
**A.** The logD was 2.

**Q.** For `Nc1c(C(=O)Nc2ccccc2)nnn1Cc1ccc(CN2CCOCC2)cc1`, which logD [1] is on record?
**A.** The logD was 2.

**Q.** With `COc1cccc(NC(=O)c2nnn(CC3CCNCC3)c2N)c1` as the compound, how does the logD [1] read?
**A.** Its logD is 0.6.

**Q.** With `COc1ccnc(NC(=O)c2nnn(Cc3ccc(CN4CCOCC4)cc3)c2N)c1` as the compound, how does the logD [1] read?
**A.** Its logD is 2.

**Q.** For `COc1cccc(NC(=O)c2nnn(Cc3ccc(C#N)cc3)c2N)c1`, which logD [1] is on record?
**A.** Its logD is 2.3.

**Q.** Which logD [1] does the source give for `COc1cccc(NC(=O)c2nnn(CC3CCN(C(=O)OC(C)(C)C)CC3)c2N)c1` here?
**A.** Its logD is 2.9.

**Q.** Which logD [1] does the source give for `COc1cnccc1-c1noc(-c2nnn(Cc3ccc(CN4CCOCC4)cc3)c2N)n1` here?
**A.** The logD was 1.1.

**Q.** For `COc1cccc(NC(=O)c2nnn(CC3CCN(C(C)=O)CC3)c2N)c1`, which logD [1] is on record?
**A.** Its logD is 1.2.

**Q.** With `COc1cccc(NC(=O)c2nnn(Cc3ccc(OC(F)(F)F)cc3)c2N)c1` as the compound, how does the Cmax [2] read?
**A.** The Cmax was 13 ng/mL.

**Q.** What about the AUC [3] of the same compound?
**A.** Its AUC is 2300 ng·min/mL.

**Q.** What about the logD [1] of the same compound?
**A.** Its logD is 3.6.

**Q.** Which logD [1] does the source give for `Nc1c(-c2nc(-c3ccccc3)no2)nnn1Cc1ccc(CN2CCOCC2)cc1` here?
**A.** The logD was 2.6.

**Q.** With `COc1ncccc1-c1noc(-c2nnn(Cc3ccc(CN4CCOCC4)cc3)c2N)n1` as the compound, how does the Cmax [2] read?
**A.** Its Cmax is 1300 ng/mL.

**Q.** What about the AUC [3] of the same compound?
**A.** Its AUC is 190000 ng·min/mL.

**Q.** What about the logD [1] of the same compound?
**A.** Its logD is 1.7.

**Q.** For `COc1cc(NC(=O)c2nnn(Cc3ccc(CN4CCOCC4)cc3)c2N)cc(OC)c1`, which Cmax [2] is on record?
**A.** The Cmax was 1600 ng/mL.

**Q.** And the AUC [3]?
**A.** Its AUC is 370000 ng·min/mL.

**Q.** And the logD [1]?
**A.** Its logD is 2.2.

**Q.** Which logD [1] does the source give for `COc1nnccc1-c1noc(-c2nnn(Cc3ccc(CN4CCOCC4)cc3)c2N)n1` here?
**A.** Its logD is 1.

**Q.** With `COc1cccc(N(C)C(=O)c2nnn(Cc3ccc(CN4CCOCC4)cc3)c2N)c1` as the compound, how does the logD [1] read?
**A.** Its logD is 2.

**Q.** For `COc1cccc(NC(=O)c2nnn(Cc3cc(C)on3)c2N)c1`, which logD [1] is on record?
**A.** Its logD is 2.

**Q.** Which logD [1] does the source give for `Nc1c(C(=O)NC23CC4CC(CC(C4)C2)C3)nnn1Cc1ccc(CN2CCOCC2)cc1` here?
**A.** The logD was 2.

**Q.** For `COc1cccc(NC(=O)c2nnn(Cc3ccc([S+](C)[O-])cc3)c2N)c1` (stereo not given), which logD [1] is on record?
**A.** Its logD is 1.3.

**Q.** For `COc1cccc(NC(=O)c2nnn(C(C)c3ccc(C(C)(C)C)cc3)c2N)c1` (stereo not given), which logD [1] is on record?
**A.** Its logD is 3.9.

**Q.** For `COc1cc(NC(=O)c2nnn(Cc3ccc(CN4CCOCC4)cc3)c2N)nc(OC)n1`, which Cmax [2] is on record?
**A.** The Cmax was 1300 ng/mL.

**Q.** What about the AUC [3] of the same compound?
**A.** Its AUC is 300000 ng·min/mL.

**Q.** What about the logD [1] of the same compound?
**A.** The logD was 2.1.

**Q.** For `COc1ccccc1-c1noc(-c2nnn(Cc3ccc(CN4CCOCC4)cc3)c2N)n1`, which logD [1] is on record?
**A.** Its logD is 2.1.

**Q.** With `Nc1c(-c2nc(C3CCC(O)CC3)no2)nnn1Cc1ccc(CN2CCOCC2)cc1` (stereo not given) as the compound, how does the logD [1] read?
**A.** Its logD is 0.9.

**Q.** Which logD [1] does the source give for `Nc1c(-c2nc(C3CCOCC3)no2)nnn1Cc1ccc(CN2CCOCC2)cc1` here?
**A.** The logD was 1.3.

**Q.** With `COc1cccc(NC(=O)c2nnn(Cc3ccc(C(C)C)cc3)c2N)c1` as the compound, how does the Cmax [2] read?
**A.** Its Cmax is 17 ng/mL.

**Q.** What about the AUC [3] of the same compound?
**A.** The AUC was 3200 ng·min/mL.

**Q.** And the logD [1]?
**A.** The logD was 3.4.

**Q.** Which logD [1] does the source give for `COc1cccc(NC(=O)c2nnn(Cc3ccc(-n4cccn4)cc3)c2N)c1` here?
**A.** The logD was 2.4.

**Q.** With `Cc1noc(C)c1-c1noc(-c2nnn(Cc3ccc(CN4CCOCC4)cc3)c2N)n1` as the compound, how does the logD [1] read?
**A.** The logD was 2.1.

**Q.** With `COc1cc(F)cc(NC(=O)c2nnn(Cc3ccc(CN4CCOCC4)cc3)c2N)c1` as the compound, how does the logD [1] read?
**A.** The logD was 2.4.

**Q.** Which logD [1] does the source give for `COc1cccc(NC(=O)c2nnn(Cc3ccccc3)c2N)c1` here?
**A.** The logD was 2.6.

**Q.** Which logD [1] does the source give for `COc1cccnc1-c1noc(-c2nnn(Cc3ccc(CN4CCOCC4)cc3)c2N)n1` here?
**A.** Its logD is 1.

**Q.** For `COc1cccc(NC(=O)c2nnn(Cc3ccc(CN4CCOCC4)cc3)c2N)c1F`, which logD [1] is on record?
**A.** Its logD is 2.1.

**Q.** For `Cc1cccc(NC(=O)c2nnn(Cc3ccc(CN4CCOCC4)cc3)c2N)c1`, which logD [1] is on record?
**A.** Its logD is 2.

**Q.** With `COc1cccc(NC(=O)c2nnn(Cc3ccc(CN4CCOCC4)cc3)c2N)c1` as the compound, how does the Drug metabolism [4] read?
**A.** Its Drug metabolism is “Metabolite_Notdetected”.

**Q.** What about the Drug metabolism [5] of the same compound?
**A.** Its Drug metabolism is “Metabolite_Notdetected”.

**Q.** With `COc1cccc(NC(=O)c2nnn(Cc3ccc(C4CC4)cc3)c2N)c1` as the compound, how does the logD [1] read?
**A.** The logD was 3.2.

**Q.** Which logD [1] does the source give for `COc1cc(NC(=O)c2nnn(Cc3ccc(CN4CCOCC4)cc3)c2N)ccc1F` here?
**A.** Its logD is 2.1.

**Q.** With `COc1cccc(NC(=O)c2nnn(Cc3ccncc3)c2N)c1` as the compound, how does the logD [1] read?
**A.** The logD was 1.4.
